Test results as given in ChEMBL document CHEMBL1148027, “Novel glucocorticoids containing a 6,5-bicyclic core fused to a pyrazole ring: synthesis, in vitro profile, molecular modeling studies, and in vivo experiments” (Bioorg Med Chem Lett, 2007).
Each block holds one compound with its values, some of them ahead of it. The source made the active and inactive calls. No cut-off for these calls is given here.

What was measured:
Mus musculus [1] = assay: Antiinflammatory activity in mouse assessed as inhibition of LPS-induced TNFalpha at 30 mg/kg relative to prednisolone; type: functional
[2] = Displacement of [3H]dexamethasone from human glucocorticoid receptor alpha
Glucocorticoid receptor = biological target: T1, Glucocorticoid receptor (Homo sapiens, UniProt P04150); assay: (§1) Activity at human glucocorticoid receptor in human A549 cells assessed as repression of human IL6; type: cell-based
T1 sequence (P04150 whole entry): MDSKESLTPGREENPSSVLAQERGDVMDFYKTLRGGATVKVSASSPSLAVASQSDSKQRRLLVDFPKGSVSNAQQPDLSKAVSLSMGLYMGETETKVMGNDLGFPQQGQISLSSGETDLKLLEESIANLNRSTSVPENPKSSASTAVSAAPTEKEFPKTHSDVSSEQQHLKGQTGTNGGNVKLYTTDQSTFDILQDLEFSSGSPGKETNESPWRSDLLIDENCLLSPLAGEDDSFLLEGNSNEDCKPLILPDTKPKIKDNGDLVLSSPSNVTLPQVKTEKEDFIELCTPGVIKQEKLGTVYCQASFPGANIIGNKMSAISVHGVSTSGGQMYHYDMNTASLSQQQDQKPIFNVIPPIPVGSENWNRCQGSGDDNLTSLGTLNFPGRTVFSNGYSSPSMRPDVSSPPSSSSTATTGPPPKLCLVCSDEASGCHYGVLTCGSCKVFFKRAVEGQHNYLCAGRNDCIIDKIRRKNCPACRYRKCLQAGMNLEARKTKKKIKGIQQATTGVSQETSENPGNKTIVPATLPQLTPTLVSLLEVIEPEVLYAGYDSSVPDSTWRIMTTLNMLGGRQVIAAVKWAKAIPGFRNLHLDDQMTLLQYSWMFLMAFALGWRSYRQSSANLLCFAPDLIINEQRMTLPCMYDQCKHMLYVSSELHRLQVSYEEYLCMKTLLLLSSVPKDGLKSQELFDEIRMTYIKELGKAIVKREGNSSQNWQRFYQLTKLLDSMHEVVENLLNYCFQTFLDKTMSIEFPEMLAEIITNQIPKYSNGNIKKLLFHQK

Mus musculus [3] = assay: Normalized AUC in iv dosed mouse; type: functional, organism-based
Mus musculus [4] = assay: Clearance in iv dosed mouse; type: functional, organism-based
Mus musculus [5] = assay: Half life in iv dosed mouse; type: functional, organism-based
Mus musculus [6] = assay: Oral bioavailability in mouse; type: functional, organism-based
[7] = biological target: T2, Glucocorticoid receptor (Homo sapiens) (UniProt P04150); assay: as §1; type: cell-based
T2 sequence (whole entry): T1 sequence (P04150 whole entry)

[8] = biological target: T2, Glucocorticoid receptor (Homo sapiens); assay: Activity at human glucocorticoid receptor in human HepG2 cells assessed as tyrosine amino transferase activity; type: cell-based
[9] = biological target: Glucocorticoid receptor (Mus musculus) (UniProt P06537); assay: Activity at mouse glucocorticoid receptor in C2C12 cells assessed as mouse glutamine synthetase activity
Mus musculus [10] = assay: Antiinflammatory activity in mouse assessed as inhibition of LPS-induced TNFalpha at 3 mg/kg; type: functional; parameters: scale not given: the % may be the effect or the level left
Mus musculus [11] = species: Mus musculus; assay: animal or person; details: read-out: Inhibition

Glucocorticoid receptor (Mus musculus), sequence (P06537 whole entry, looked up): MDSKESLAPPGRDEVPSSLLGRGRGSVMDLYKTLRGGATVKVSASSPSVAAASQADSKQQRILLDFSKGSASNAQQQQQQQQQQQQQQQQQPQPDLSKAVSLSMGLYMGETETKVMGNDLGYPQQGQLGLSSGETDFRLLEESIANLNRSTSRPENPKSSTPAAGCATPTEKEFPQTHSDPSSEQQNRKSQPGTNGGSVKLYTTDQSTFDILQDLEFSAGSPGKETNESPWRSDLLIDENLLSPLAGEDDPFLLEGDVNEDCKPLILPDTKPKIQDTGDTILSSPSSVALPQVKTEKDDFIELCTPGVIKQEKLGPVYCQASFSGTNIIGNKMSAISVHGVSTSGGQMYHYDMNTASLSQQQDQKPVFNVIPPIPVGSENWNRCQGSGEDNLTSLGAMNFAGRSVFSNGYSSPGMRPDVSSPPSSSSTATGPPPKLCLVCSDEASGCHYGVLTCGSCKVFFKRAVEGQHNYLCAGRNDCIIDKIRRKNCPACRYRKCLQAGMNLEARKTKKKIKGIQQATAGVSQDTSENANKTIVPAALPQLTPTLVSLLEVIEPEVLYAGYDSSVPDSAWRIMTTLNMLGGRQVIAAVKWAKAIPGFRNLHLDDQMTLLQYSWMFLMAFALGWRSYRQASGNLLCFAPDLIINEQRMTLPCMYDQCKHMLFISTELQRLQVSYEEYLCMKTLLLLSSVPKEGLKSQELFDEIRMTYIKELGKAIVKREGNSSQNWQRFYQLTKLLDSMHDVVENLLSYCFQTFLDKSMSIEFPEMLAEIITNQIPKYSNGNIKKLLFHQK

SMILES: C[C@]12Cc3cnn(-c4ccc(F)cc4)c3C=C1CC[C@@H]2[C@@H](O)c1csc2ccccc12
inhibition in vivo at 30 mg/kg (Mus musculus [1]): 113%

SMILES: C[C@]12Cc3cnn(-c4ccc(F)cc4)c3C=C1CCC[C@@H]2[C@@H](O)c1ccsc1
IC50 [2]: 5.1 nM
EC50 (Glucocorticoid receptor): 1 nM

SMILES: C[C@]12Cc3cnn(-c4ccc(F)cc4)c3C=C1CC[C@@H]2[C@H](O)c1csc2ccccc12
inhibition in vivo at 30 mg/kg (Mus musculus [1]): 103%
AUC (Mus musculus [3]): 1.7 µM·h/mg/kg
CL (mL.min-1.kg-1) (Mus musculus [4]): 22.3
T1/2 (Mus musculus [5]): 7.8 h
bioavailability (Mus musculus [6]): 34%

SMILES: C[C@]12Cc3cnn(-c4ccc(F)cc4)c3C=C1CCC[C@@H]2[C@@H](O)c1cc2ccccc2s1
EC50 [9]: 1210 nM

SMILES: C[C@]12C=CC(=O)C=C1CC[C@@H]1[C@@H]2[C@@H](O)C[C@@]2(C)[C@H]1CC[C@]2(O)C(=O)CO [PREDNISOLONE]
Activity (Mus musculus [10]): 71%
inhibition in vivo at 3 mg/kg (Mus musculus [11]): 100%

Results, then the compound that gave them:

IC50 [2]: 5.1 nM
SMILES: C[C@]12Cc3cnn(-c4ccc(F)cc4)c3C=C1CCC[C@@H]2[C@@H](O)c1csc2ccccc12

IC50 [2]: 689 nM
Activity [7]: inactive
Activity [8]: inactive
SMILES: C[C@]12Cc3cnn(-c4ccc(F)cc4)c3C=C1CC[C@@H]2[C@H](O)c1cc2ccccc2s1

IC50 [2]: 86 nM
Activity [8]: inactive
Activity [9]: inactive
SMILES: C[C@]12Cc3cnn(-c4ccc(F)cc4)c3C=C1CC[C@@H]2[C@@H](O)c1ccc2ccccc2c1

IC50 [2]: 69.1 nM
Activity [8]: inactive
Activity [9]: inactive
SMILES: C[C@]12Cc3cnn(-c4ccc(F)cc4)c3C=C1CC[C@@H]2[C@@H](O)c1cc2ccccc2s1

IC50 [2]: 1.5 nM
EC50 [9]: 3 nM
SMILES: C[C@]12Cc3cnn(-c4ccc(F)cc4)c3C=C1CCC[C@@H]2[C@H](O)c1csc2ccccc12

IC50 [2]: 198 nM
Activity [8]: inactive
Activity [9]: inactive
SMILES: C[C@]12Cc3cnn(-c4ccc(F)cc4)c3C=C1CC[C@@H]2[C@H](O)c1ccc2ccccc2c1
